From patent publication US6555323B2, “Assay for ABCA1” (Pfizer Inc., priority 2000, dated 2003)

What was measured:
ABCA1 [1] = test: Cellular cholesterol efflux to apo-AI from [3H]-cholesterol-labeled J774 macrophages; assay type: cell-based, mouse; settings: 16 hours pretreatment, J774 cells, apo-AI 20 μg/ml acceptor
Protocol: (§1) Stock cultures of J774 mouse macrophage cell line were grown in RPMI 1640 supplemented with 10% FBS and 50 μg/ml gentamicin at 37° C. in a humidified atmosphere containing 95% air and 5% CO2.
(§2) Cells were seeded in 96 wells (96-well plate, 0.15 ml/well) using 50,000 to 100,000 cells per well and grown in RPMI 1640-10% FBS and 0.5% gentamicin at37° C. for 72 hours to achieve 80-90% confluence. Radiolabeled cholesterol ([1,2-^3H] cholesterol, New England Nuclear) was added to the cells by adding a tracer amount (1-5 μCi/well in a final concentration of 0.1% ethanol) to FBS, which was then diluted to a final concentration of 1% in RPMI. An acyl-CoA cholesterol acyltransferase (ACAT) inhibitor (decanamide, 2-(hexylthio)-N-[6-methyl-2,4-bis(methylthio)-3-pyridinyl]-,(2S)-(9Cl) at 2 μg/ml) was added to the labeling medium. […] Cells were grown in the presence of the radiolabel for two additional days to obtain confluent monolayers. For experiments where cells are enriched in free cholesterol, acetylated LDL (100 μg of protein/ml) was included in the labeling mixture. Following the labeling period, cells were extensively washed using MEM-Hepes medium supplemented with 0.5% gentamicin, and incubated with either cpt-cAMP (positive control) at 0.3 mM or test compounds (varying concentrations may be used, although […] was selected for the present experiment) for an additional 16 hours.
At the end of the pretreatment period with cpt-cAMP or test compounds, cells were extensively washed with MEM-Hepes medium containing gentamicin and incubated in RPMI 1640 medium containing the cholesterol acceptor apo-AI at a final concentration of 20 μg/ml. Parallel monolayers of control or treated cells were also incubated with acceptor-free medium to determine background, non-acceptor mediated cholesterol efflux. Cellular cholesterol efflux was quantified by measuring the release of cellular [^3H]-cholesterol into the medium as a function of time. An aliquot of the incubation medium was filtered using a 0.45 micron Millipore multiscreen plate to remove any floating cells and then counted using a Wallac Microbeta Counter (Perkin-Elmer Life Sciences, Turku, Finland).
The amount of radiolabeled cholesterol released from the cells (% efflux) is determined by the amount of radioactivity present in the incubation medium divided by the radioactivity at time zero (T0). Radtio activty at time zero is calculated as the amount of radioactivity in the cells as determined by isopropanol extraction at the end of the treatment time.

ABCA1 mRNA = ABCA1 mRNA level in treated cells; assay type: cell-based, mouse
Protocol: In the case where the analysis of ABCA1 expression is required, total RNA may be isolated (e.g., by the method according to Chomczynski et al., N. Anal. Biochem., 162:156 (1987)) and ABCA1 mRNA levels determined by standard techniques such as Northern blotting, slot blot hybridization, or Ribonuclease protection assays using ABCA1 specific mRNA probes.
as §1, §2

ABCA1 [2] = test: Cellular cholesterol efflux to apo-AI from [3H]-cholesterol-labeled J774 macrophages; assay type: cell-based, mouse; settings: 1 μM, 16 hours pretreatment, J774 cells, apo-AI 20 μg/ml acceptor
[3] = biological target: T1, acyl-CoA cholesterol acyltransferase (ACAT) (Mus musculus, UniProt Q61263); test: ACAT inhibition in labeling medium of J774 cells; assay type: cell-based; settings: 2 μg/ml in labeling medium
T1 construct: endogenous in cells; host or cells: J774 mouse macrophage cell line
T1 sequence (Q61263 1-540): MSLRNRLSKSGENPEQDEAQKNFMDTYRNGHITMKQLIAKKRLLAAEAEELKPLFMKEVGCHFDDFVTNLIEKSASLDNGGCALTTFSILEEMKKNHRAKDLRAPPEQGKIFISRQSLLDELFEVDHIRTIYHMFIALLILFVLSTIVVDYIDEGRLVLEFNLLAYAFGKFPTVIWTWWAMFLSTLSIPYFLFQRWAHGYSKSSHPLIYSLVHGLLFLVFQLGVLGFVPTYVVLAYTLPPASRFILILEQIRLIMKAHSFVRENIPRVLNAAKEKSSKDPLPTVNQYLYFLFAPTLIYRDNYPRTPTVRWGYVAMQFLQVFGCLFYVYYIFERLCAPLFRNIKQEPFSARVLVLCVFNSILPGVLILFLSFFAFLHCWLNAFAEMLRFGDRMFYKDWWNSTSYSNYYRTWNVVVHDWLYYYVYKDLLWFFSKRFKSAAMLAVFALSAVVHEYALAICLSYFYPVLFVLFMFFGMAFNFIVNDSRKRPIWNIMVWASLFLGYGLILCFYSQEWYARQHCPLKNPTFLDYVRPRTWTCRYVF
Protocol: as §2

## COc1ccc(-c2cn3c(C)nnc3c(N3CCC4(CC3)C(=O)NCN4c3ccccc3)n2)cc1
ABCA1 [1]; 5 μM
  % of control (cholesterol efflux): 101 % of control

## CN(c1ccc(C(O)(C(F)(F)F)C(F)(F)F)cc1)S(=O)(=O)c1ccccc1[N+](=O)[O-]
ABCA1 [1]; 5 μM
  % of control (cholesterol efflux): 185 % of control
ABCA1 mRNA; 5 μM
  % of control mRNA: 160 % of control

## O=S(=O)(c1ccccc1)N(CC(F)(F)F)c1ccc(C(O)(C(F)(F)F)C(F)(F)F)cc1
ABCA1 [1]; 5 μM
  % of control (cholesterol efflux): 177 % of control
ABCA1 mRNA; 5 μM
  % of control mRNA: 680 % of control

## Cc1nnc2c(N3CCC4(CC3)C(=O)NCN4c3ccccc3)nc(-c3ccc(O)cc3)cn12
ABCA1 [1]; 5 μM
  % of control (cholesterol efflux): 106 % of control

## COc1ccc(-c2cn3c(C)nnc3c(N3CCC(C)(N(C)c4cccc(F)c4)CC3)n2)cc1
ABCA1 [1]; 5 μM
  % of control (cholesterol efflux): 94 % of control

## COc1ccc(-c2cn3c(C)nnc3c(N3CCC4(CC3)C(=O)NCN4c3ccccc3)n2)cc1OC
ABCA1 [1]; 5 μM
  % of control (cholesterol efflux): 111 % of control

## Cc1nnc2c(N3CCC4(CC3)C(=O)NCN4c3ccccc3)nc(-c3ccc4c(c3)OCO4)cn12
ABCA1 [1]; 5 μM
  % of control (cholesterol efflux): 82 % of control

## COc1cc(-c2cn3c(C)nnc3c(N3CCC4(CC3)C(=O)NCN4c3ccccc3)n2)cc(OC)c1OC
ABCA1 [1]; 5 μM
  % of control (cholesterol efflux): 95 % of control

## Cc1nnc2n1-c1sccc1C(c1ccccc1)=NC2
ABCA1 [1]; 5 μM
  % of control (cholesterol efflux): 102 % of control

## Cc1nnc2c(N3CCC4(CC3)C(=O)NCN4c3ccccc3)nc(-c3ccccc3)cn12
ABCA1 [1]; 5 μM
  % of control (cholesterol efflux): 109 % of control

## CCCCC[C@H](O)/C=C/[C@H]1[C@H](O)CC(=O)[C@@H]1CCCCCCC(=O)O [Prostaglandin E1, reference compound]
ABCA1 mRNA; 1 μM
  % of control mRNA: 1420 % of control
ABCA1 [2]
  % of control (cholesterol efflux): 210 % of control

## Nc1ncnc2c1nc(Sc1ccc(Cl)cc1)n2[C@@H]1O[C@@H]2COP(=O)(O)O[C@H]2[C@H]1O [cpt-cAMP, reference compound]
ABCA1 [1]; 0.3 mM
  % of control (cholesterol efflux): 425 % of control
ABCA1 mRNA; 0.3 mM
  % of control mRNA: 1600 % of control

## CCCCCCCC[C@H](SCCCCCC)C(=O)Nc1c(SC)cc(C)nc1SC [decanamide, 2-(hexylthio)-N-[6-methyl-2,4-bis(methylthio)-3-pyridinyl]-,(2S)-(9Cl)]
[3]
  ACAT activity: completely inhibited
